In publication PMC12866986 (European journal of medicinal chemistry, 2026):
“And” between values parts separate entries of the source, which are not always exact repeats. Identical values can stand only once.

Molecular target: FAK (Homo sapiens, UniProt Q05397)
Details: 100 nM; 1 h; relative to vehicle control; n = 8 measurements

Chain of FAK (Q05397 whole entry): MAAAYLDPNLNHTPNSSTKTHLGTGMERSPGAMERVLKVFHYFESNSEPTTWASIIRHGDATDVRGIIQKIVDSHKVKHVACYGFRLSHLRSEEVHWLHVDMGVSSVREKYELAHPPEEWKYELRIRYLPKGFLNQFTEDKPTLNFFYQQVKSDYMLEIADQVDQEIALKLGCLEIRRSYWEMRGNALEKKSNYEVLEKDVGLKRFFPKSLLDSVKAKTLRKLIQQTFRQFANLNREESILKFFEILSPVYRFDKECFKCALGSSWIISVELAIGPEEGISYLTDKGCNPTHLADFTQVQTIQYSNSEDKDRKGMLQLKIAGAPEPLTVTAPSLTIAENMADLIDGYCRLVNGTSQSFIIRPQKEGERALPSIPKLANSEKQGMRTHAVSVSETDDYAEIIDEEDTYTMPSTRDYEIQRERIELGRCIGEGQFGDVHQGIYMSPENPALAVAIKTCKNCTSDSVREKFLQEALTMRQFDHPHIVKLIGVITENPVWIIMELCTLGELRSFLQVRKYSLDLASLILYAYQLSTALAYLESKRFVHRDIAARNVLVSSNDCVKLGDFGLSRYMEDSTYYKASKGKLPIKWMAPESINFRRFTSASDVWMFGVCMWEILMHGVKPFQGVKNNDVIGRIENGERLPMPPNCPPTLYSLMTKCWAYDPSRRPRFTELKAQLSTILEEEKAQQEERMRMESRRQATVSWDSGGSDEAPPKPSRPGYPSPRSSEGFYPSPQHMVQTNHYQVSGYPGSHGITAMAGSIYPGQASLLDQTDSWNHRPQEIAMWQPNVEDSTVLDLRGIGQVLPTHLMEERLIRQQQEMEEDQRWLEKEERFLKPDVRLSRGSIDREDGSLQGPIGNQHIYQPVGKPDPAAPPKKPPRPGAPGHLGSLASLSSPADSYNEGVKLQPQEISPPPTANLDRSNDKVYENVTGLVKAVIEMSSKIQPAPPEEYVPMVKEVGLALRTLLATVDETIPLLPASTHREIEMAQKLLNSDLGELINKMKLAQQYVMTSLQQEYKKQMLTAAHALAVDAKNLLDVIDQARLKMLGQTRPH

FAK-Tyr-397/FAK fold change, ± SEM | SMILES
1.03±0.08 fold change | COC(=O)C(Cc1ccncc1)NC(=O)Nc1cc(C(F)(F)F)ccc1N1CCOCC1 (stereo not shown) [Compound 9a, Methyl 2-(3-(2-Morpholino-5-(trifluoromethyl)phenyl)ureido)-3-(pyridin-4-yl)propanoate]
0.97±0.08 fold change | COCCNC(=O)C(Cc1ccncc1)NC(=O)Nc1cc(C(F)(F)F)ccc1N1CCOCC1 (stereo not shown) [Compound 9b, N-(2-Methoxyethyl)-2-(3-(2-morpholino-5-(trifluoromethyl)phenyl)ureido)-3-(pyridin-4-yl)propanamide]
1.23±0.07 fold change | CN(C)C(CNC(=O)Nc1ccccc1N1CCOCC1)c1ccncc1 (stereo not shown) [Compound 10a, 1-(2-(Dimethylamino)-2-(pyridin-4-yl)ethyl)-3-(2-morpholinophenyl)urea]
0.89±0.05 fold change | Cc1ccc(N2CCOCC2)c(NC(=O)NCC(c2ccncc2)N(C)C)c1 (stereo not shown) [Compound 10c, 1-(2-(Dimethylamino)-2-(pyridin-4-yl)ethyl)-3-(5-methyl-2-morpholinophenyl)urea]
0.83±0.07 fold change | CN(C)C(CNC(=O)Nc1cc(C#N)ccc1N1CCOCC1)c1ccncc1 (stereo not shown) [Compound 10d, 1-(5-Cyano-2-morpholinophenyl)-3-(2-(dimethylamino)-2-(pyridin-4-yl)ethyl)urea]
0.82±0.06 fold change | CN(C)C(CNC(=O)Nc1cc(Cl)ccc1N1CCOCC1)c1ccncc1 (stereo not shown) [Compound 10e, 1-(5-Chloro-2-morpholinophenyl)-3-(2-(dimethylamino)-2-(pyridin-4-yl)ethyl)urea]
1.2±0.08 fold change | CN(C)C(CNC(=O)Nc1cc(C(F)F)ccc1N1CCOCC1)c1ccncc1 (stereo not shown) [Compound 10f, 1-(5-(Difluoromethyl)-2-morpholinophenyl)-3-(2-(dimethylamino)-2-(pyridin-4-yl)ethyl)urea]
1.12±0.03 fold change | CN(C)C(CNC(=O)Nc1cc(OC(F)(F)F)ccc1N1CCOCC1)c1ccncc1 (stereo not shown) [Compound 10g, 1-(2-(Dimethylamino)-2-(pyridin-4-yl)ethyl)-3-(2-morpholino-5-(trifluoromethoxy)phenyl)urea]
1.29±0.07 fold change | COc1ccc(N2CCOCC2)c(NC(=O)NCC(c2ccncc2)N(C)C)c1 (stereo not shown) [Compound 10h, 1-(2-(Dimethylamino)-2-(pyridin-4-yl)ethyl)-3-(5-methoxy-2-morpholinophenyl)urea]
1.28±0.1 fold change | COCOc1ccc(N2CCOCC2)c(NC(=O)NCC(c2ccncc2)N(C)C)c1 (stereo not shown) [Compound 10i, 1-(2-(Dimethylamino)-2-(pyridin-4-yl)ethyl)-3-(5-(methoxymethoxy)-2-morpholinophenyl)urea]
1.05±0.1 fold change | COCCOc1ccc(N2CCOCC2)c(NC(=O)NCC(c2ccncc2)N(C)C)c1 (stereo not shown) [Compound 10j, 1-(2-(Dimethylamino)-2-(pyridin-4-yl)ethyl)-3-(5-(2-methoxyethoxy)-2-morpholinophenyl)urea]
1.13±0.1 fold change | COCCOCCOCCOc1ccc(N2CCOCC2)c(NC(=O)NCC(c2ccncc2)N(C)C)c1 (stereo not shown) [Compound 10l, 1-(2-(Dimethylamino)-2-(pyridin-4-yl)ethyl)-3-(5-(2-(2-(2-methoxyethoxy)ethoxy)ethoxy)-2-morpholinophenyl)urea]
0.93±0.1 fold change | CN(C)C(CNC(=O)Nc1cc(OCCOCCO)ccc1N1CCOCC1)c1ccncc1 (stereo not shown) [Compound 10m, 1-(2-(Dimethylamino)-2-(pyridin-4-yl)ethyl)-3-(5-(2-(2-hydroxyethoxy)ethoxy)-2-morpholinophenyl)urea]

SMILES | FAK-Tyr-397/FAK fold change, ± SEM
CN(C)C(CNC(=O)Nc1cc(C(F)(F)F)ccc1N1CCOCC1)c1cccnc1 (stereo not shown) [Compound 5b, 1-(2-(Dimethylamino)-2-(pyridin-3-yl)ethyl)-3-(2-morpholino-5-(trifluoromethyl)phenyl)urea] | 1.0±0.04 fold change
CN(C)C(CNC(=O)Nc1cc(C(F)(F)F)ccc1N1CCOCC1)c1cccnc1.Cl (stereo not shown) [Compound 5bHCl, 1-(2-(Dimethylamino)-2-(pyridin-3-yl)ethyl)-3-(2-morpholino-5-(trifluoromethyl)phenyl)urea hydrochloric salt] | 1.05±0.06 fold change
CN(C)C(CNC(=O)Nc1cc(C(F)(F)F)ccc1N1CCOCC1)c1ccccn1 (stereo not shown) [Compound 5c, 1-(2-(Dimethylamino)-2-(pyridin-2-yl)ethyl)-3-(2-morpholino-5-(trifluoromethyl)phenyl)urea] | 0.84±0.11 fold change
CN(C)C(CNC(=O)Nc1cc(C(F)(F)F)ccc1N1CCOCC1)c1ccccn1.Cl (stereo not shown) [Compound 5cHCl, 1-(2-(Dimethylamino)-2-(pyridin-2-yl)ethyl)-3-(2-morpholino-5-(trifluoromethyl)phenyl)urea hydrochloric salt] | 0.98±0.07 fold change
CC(C)(CNC(=O)Nc1cc(C(F)(F)F)ccc1N1CCOCC1)c1ccncc1 [Compound 6, 1-(2-Methyl-2-(pyridin-4-yl)propyl)-3-(2-morpholino-5-(trifluoromethyl)phenyl)urea] | 1.09±0.12 fold change
CC(C)(CNC(=O)Nc1cc(C(F)(F)F)ccc1N1CCOCC1)c1ccncc1.Cl [Compound 6HCl, 1-(2-Methyl-2-(pyridin-4-yl)propyl)-3-(2-morpholino-5-(trifluoromethyl)phenyl)urea hydrochloric salt] | 1.11±0.12 fold change
O=C(NCCc1ccncc1)Nc1cc(C(F)(F)F)ccc1N1CCOCC1 [Compound 7, 1-(2-Morpholino-5-(trifluoromethyl)phenyl)-3-(2-(pyridin-4-yl)ethyl)urea] | 0.98±0.07 fold change
Cl.O=C(NCCc1ccncc1)Nc1cc(C(F)(F)F)ccc1N1CCOCC1 [Compound 7HCl, 1-(2-Morpholino-5-(trifluoromethyl)phenyl)-3-(2-(pyridin-4-yl)ethyl)urea hydrochloric salt] | 0.91±0.13 fold change
O=C(NCCc1cnccn1)Nc1cc(C(F)(F)F)ccc1N1CCOCC1 [Compound 8, 1-(2-Morpholino-5-(trifluoromethyl)phenyl)-3-(2-(pyrazin-2-yl)ethyl)urea] | 0.93±0.08 fold change
Cl.O=C(NCCc1cnccn1)Nc1cc(C(F)(F)F)ccc1N1CCOCC1 [Compound 8HCl, 1-(2-Morpholino-5-(trifluoromethyl)phenyl)-3-(2-(pyrazin-2-yl)ethyl)urea hydrochloric salt] | 1.05±0.07 fold change
CN(C)C(CNC(=O)Nc1cc(F)ccc1N1CCOCC1)c1ccncc1 (stereo not shown) [Compound 10b, 1-(2-(Dimethylamino)-2-(pyridin-4-yl)ethyl)-3-(5-fluoro-2-morpholinophenyl)urea] | 1.12 fold change and 1.12±0.05 fold change
COCCOCCOc1ccc(N2CCOCC2)c(NC(=O)NCC(c2ccncc2)N(C)C)c1 (stereo not shown) [Compound 10k, 1-(2-(Dimethylamino)-2-(pyridin-4-yl)ethyl)-3-(5-(2-(2-methoxyethoxy)ethoxy)-2-morpholinophenyl)urea] | 1.32±0.03 fold change
